Values after ≈ are worked out from the molar mass of the structure shown.
Experiments:
[1] = test system: 3T3 cell lines (Normal Fibroblast cell); assay: Cytotoxic activity against 3T3 cell lines (MTT assay); format: cell-based, Mouse; conditions: 72 h, 1-100 μg/mL
Experimental: Cytotoxic activity of compounds was evaluated in 96-well flat-bottomed micro plates by using the standard MTT (3-[4,5-dimethylthiazole-2-yl]-2,5-diphenyl-tetrazolium bromide) colorimetric assay1. For this purpose, 3T3 (Mouse fibroblast) were cultured in Dulbecco's Modified Eagle's Medium, supplemented with 5% of foetal bovine serum (FBS), 100 IU/mL of penicillin and 100 μg/mL of streptomycin in 25 cm^3 flask, and kept in 5% CO2 incubator at 37° C. Exponentially growing cells were harvested, counted with haemocytometer and diluted with a particular medium. Cell culture with the concentration of 1×10^5 cells/mL was prepared and introduced (100 μL/well) into 96-well plates. After overnight incubation, medium was removed and 200 μL of fresh medium was added with different concentrations of compounds (1-100 μg/mL). After 72 h, 50 μL MTT (2 mg/mL) was added to each well and incubated further for 4 hrs. Subsequently, 100 μL of DMSO was added to each well. The extent of MTT reduction to formazan within cells was calculated by measuring the absorbance at 570 nm, using a microplate ELISA reader (Spectra Max plus, Molecular Devices, CA, USA). The cytotoxicity was recorded as concentration causing 50% growth inhibition for 3T3 cells.

Leishmania promastigotes = assay: In vitro leishmanicidal assay; format: cell-based; conditions: 72 hrs, 22-25° C.
Experimental: Leishmania promastigotes were grown in bulk early in modified NNN biphasic medium using normal physiological saline. Leishmania parasite promastigotes were cultured with RPMI 1640 medium (Sigma, St. Louis, USA) supplemented with 10% heat inactivated foetal Calf serum (FCS) (PAA Laboratories GmbH, Austria) Parasites at log phase were centrifuged at 2000 rpm for 10 minutes, and washed three times with saline at same speed and time. Parasites were diluted with fresh culture medium to a final density of 1×10^6 cells/ml.
In a 96-well micro titer plate, medium was added in different wells, 20 μl of the experimental compound was added in medium and serially diluted. 100 μl of parasite culture was added in all wells. Two rows were left for negative and positive control. Negative controls receives medium while the positive control contains varying concentrations of standard antileishmanial compound e.g., Amphotericin B (MP Biomedical Inc.), Pantamidine (ICN Biomedical Inc.). The plate was incubated between 22-25° C. for 72 hrs. […] All assays were run in duplicate (5).

Structure (SMILES): C[C@@H]1C[C@@H]([C@H](O)CC2CC(=O)NC(=O)C2)C(=O)[C@@H](C)C1 [Cyclohexamide]
- IC50 ± S.D. 3T3 cell lines [1]: 0.26 ± 0.04 µg/mL (≈ 0.924 µM)

Structure (SMILES): N=C(N)c1ccc(OCCCCCOc2ccc(C(=N)N)cc2)cc1 [Pentamidine]
- IC50 (Leishmania promastigotes; Leishmania, read-out: In vitro Leishmanicidal activity IC50 ± S.D): 5.13 ± 0.02 µg/mL (≈ 15.1 µM)

Structure (SMILES): C[C@@H]1[C@H](O)[C@@H](C)/C=C/C=C/C=C/C=C/C=C/C=C/C=C/[C@H](O[C@@H]2O[C@H](C)[C@@H](O)[C@H](N)[C@@H]2O)C[C@@H]2O[C@](O)(C[C@@H](O)C[C@@H](O)[C@H](O)CC[C@@H](O)C[C@@H](O)CC(=O)O[C@H]1C)C[C@H](O)[C@H]2C(=O)O [Amphotericin B]
- In vitro Leishmanicidal activity IC50 ± S.D (Leishmania promastigotes): 0.12 ± 0.10 µg/mL

— patent US8287921B1, “Formulations against cutaneous leishmaniasis” (priority 2011, dated 2012)
